For 14 molecules, EC50 results are on record in patent publication US20250136606A1, “MODULATORS OF TRPML, THEIR COMPOSITIONS AND METHODS OF USE” (Caraway Therapeutics, Inc., priority 2021, published 2025).

Where only a bound is given, the exact number is not on record here.

Assay type in all cases: cell-based
What all share (details): fluorescent calcium assay

Assay [1] addresses T1, TRPML3 (Homo sapiens, UniProt Q8TDD5).
T1 construct: expressed in transfected cells
T1 sequence (Q8TDD5 1-553): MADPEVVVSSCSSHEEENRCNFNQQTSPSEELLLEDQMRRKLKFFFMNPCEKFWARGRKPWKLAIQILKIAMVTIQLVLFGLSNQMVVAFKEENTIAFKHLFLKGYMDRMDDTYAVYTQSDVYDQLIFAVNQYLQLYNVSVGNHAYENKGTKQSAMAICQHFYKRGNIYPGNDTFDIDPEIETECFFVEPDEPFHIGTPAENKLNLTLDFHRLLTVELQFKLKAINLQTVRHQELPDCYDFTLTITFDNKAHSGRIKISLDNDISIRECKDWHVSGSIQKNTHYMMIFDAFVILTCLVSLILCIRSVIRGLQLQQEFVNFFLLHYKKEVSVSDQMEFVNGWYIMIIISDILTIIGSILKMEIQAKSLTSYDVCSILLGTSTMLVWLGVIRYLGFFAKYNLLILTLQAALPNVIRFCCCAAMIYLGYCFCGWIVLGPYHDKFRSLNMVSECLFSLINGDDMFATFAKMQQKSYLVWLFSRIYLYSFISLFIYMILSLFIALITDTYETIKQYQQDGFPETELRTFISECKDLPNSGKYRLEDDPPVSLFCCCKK
Kind of assay: Fluorescent TRPML3 assay (performed as for TRPML1, substituting the TRPML3 subtype). The procedure, abridged:
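Agonist activity is scored as percent of plate controls from Fluo4 fluorescence after dye-loaded, doxycycline-induced HEK-293 Trex cells meet compound in high-calcium (10 mM) Ringer's. Compounds run in half-log dilutions from 20 micromolar final, in triplicate.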

The target in assay [2] is TRPML1 (Homo sapiens, UniProt Q9GZU1). Kind of assay: Fluorescent TRPML1 assay (Fluo4-AM calcium fluorescence in doxycycline-induced HEK-293 Trex cells). Summed up: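 EC50 values come from non-linear regression of percent activity, normalized to on-plate positive and negative controls, with fluorescence read at 480 nm excitation and 540 nm emission. Fluo4-AM-loaded (1 µM) doxycycline-induced HEK-293 Trex cells expressing mutated human TRPML1 were exposed in 10 mM calcium Ringer's to 6 nM–20 µM compound, in triplicate.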
Sequence of TRPML1 (Q9GZU1 whole entry L15A/L16A/L577A/L578A, form open): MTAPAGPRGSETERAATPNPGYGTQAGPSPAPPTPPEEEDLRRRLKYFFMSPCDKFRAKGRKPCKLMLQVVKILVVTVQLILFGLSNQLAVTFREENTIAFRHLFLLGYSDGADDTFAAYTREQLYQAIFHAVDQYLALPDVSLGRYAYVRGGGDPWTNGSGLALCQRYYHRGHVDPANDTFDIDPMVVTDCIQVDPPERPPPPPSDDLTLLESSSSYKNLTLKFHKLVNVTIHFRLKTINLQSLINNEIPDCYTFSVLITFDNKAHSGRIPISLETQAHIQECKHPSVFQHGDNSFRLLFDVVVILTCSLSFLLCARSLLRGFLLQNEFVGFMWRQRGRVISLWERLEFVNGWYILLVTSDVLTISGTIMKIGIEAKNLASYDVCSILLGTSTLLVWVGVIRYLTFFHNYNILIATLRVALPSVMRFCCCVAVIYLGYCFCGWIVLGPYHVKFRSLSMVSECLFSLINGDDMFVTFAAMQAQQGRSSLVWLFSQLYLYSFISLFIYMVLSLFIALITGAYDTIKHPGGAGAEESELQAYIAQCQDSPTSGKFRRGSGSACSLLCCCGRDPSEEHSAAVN

For assay [3], the target named is T2, TRPML2 (Homo sapiens, UniProt Q8IZK6).
T2 construct: expressed in transfected cells
T2 sequence (Q8IZK6 1-566): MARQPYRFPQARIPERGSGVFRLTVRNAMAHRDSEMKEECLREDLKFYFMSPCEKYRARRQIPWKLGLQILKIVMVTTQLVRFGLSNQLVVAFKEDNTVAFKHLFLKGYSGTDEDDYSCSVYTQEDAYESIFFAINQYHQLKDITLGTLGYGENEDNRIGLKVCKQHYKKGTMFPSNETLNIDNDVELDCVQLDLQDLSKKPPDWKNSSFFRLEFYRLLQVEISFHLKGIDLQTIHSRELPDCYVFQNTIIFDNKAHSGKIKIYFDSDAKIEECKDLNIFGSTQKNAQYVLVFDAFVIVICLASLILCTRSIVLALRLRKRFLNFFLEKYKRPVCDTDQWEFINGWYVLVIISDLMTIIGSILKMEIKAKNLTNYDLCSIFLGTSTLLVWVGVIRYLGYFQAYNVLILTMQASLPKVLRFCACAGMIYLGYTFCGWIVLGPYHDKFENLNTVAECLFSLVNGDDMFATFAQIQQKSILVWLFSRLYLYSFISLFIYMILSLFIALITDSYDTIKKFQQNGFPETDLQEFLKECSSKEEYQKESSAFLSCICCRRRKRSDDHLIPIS
The assay can be described thus: Fluorescent TRPML2 assay (performed as for TRPML1, substituting the TRPML2 subtype). As to the method:
HEK-293 Trex cells were stably transfected with a construct consisting of the human coding sequence for TRPML1 cloned into the […] plasmid pCDNA5 T/O. Mutations were introduced into the TRPML1 sequence to facilitate expression on the cell surface (Silvia Vergarajauregui, Rosa Puertollano, Traffic. 2006 March; 7(3): 337-353). Briefly, the cells are cultured in 150 mm round tissue culture dishes containing 20 mL of media. The day before the assay the cells are rinsed with DPBS-Ca—Mg and then treated briefly with Trypsin-EDTA. The Trypsin-EDTA is diluted with growth media, and cells are counted. 38×10^6 cells are re-plated into 150 mm round tissue culture dishes in media containing 0.5 ug/mL doxycycline to induce expression of hTRPML1.
The day of the experiment cells are lifted from the plates as above and collected by centrifugation. The cells are then suspended in dye loading buffer consisting of Ringer's solution supplemented with 0.1% Pluronic Acid and 1 micromolar Fluo4-AM dye. Cells are loaded for ˜60 minutes in the dark with occasional mixing. The cells are collected by centrifugation, the loading media aspirated, and the cells resuspended in 25 mL Ringer's solution and incubated ˜60 minutes in the dark. The cells are again collected by centrifugation, rinsed in Ringer's Solution and resuspended to […] in modified Ringer's solution containing 10 mM calcium.
Compounds are dissolved to a concentration of 10 millimolar with DMSO. Compound plates are created by dispensing compounds into 384 well black wall clear bottom plates (Greiner 781091). Positive and negative controls are included on each plate. Typically, different amounts of each compound are tested ranging from 100 nanoMoles (20 micromolar final concentration) decreasing in half-log steps to 31 picoMoles (6 nanomolar final concentration). Each concentration is typically tested in triplicate.
50 microliters of dye-loaded cells are dispensed into each well of the compound assay plate created above. The fluorescence in each well is then determined with an excitation wavelength of 480 nm and an emission wavelength of 540 nm using either a Molecular Devices SpectraMax multimode plate reader or a Hamamatsu FDSS/uCell plate imager.
The resulting fluorescence for each well is exported as an ascii file and loaded into our LIMS for analysis. The percent activity of each compound at each concentration is determined by comparison to the positive and negative control wells included in each plate.
TRPML2 and TRPML3 Assays Assays for TRPML2 and TRPML3 were performed as above for TRPML1, by substituting the appropriate TRPML2 or TRPML3 subtype for the TRPML1.
EC50 values were calculated using a non-linear regression of Prism. In the table, “A” indicates an EC50 of less than 100 nM, “B” indicates an EC50 range from 100 nM to 500 nM; “C” indicates an EC50 range from 500 nM to 2 μM; and “D” indicates an EC50 greater than 2 μM.

`C[C@H]1CN(C(=O)OC(C)(C)C)CCN1c1ncnc2c1c(-c1ncccn1)cn2-c1cccc(Cl)c1` [Compound 116, tert-butyl (S)-4-(7-(3-chlorophenyl)-5-(pyrimidin-2-yl)-7H-pyrrolo[2,3-d]pyrimidin-4-yl)-3-methylpiperazine-1-carboxylate]: the EC50 (commonly the concentration at which the effect is half-maximal) in assay [1] was 100 to 500 nM; in assay [2], 100 to 500 nM; in assay [3], 500 to 2000 nM.
With `C[C@@H]1CN(c2ncnc3c2c(-c2ccccn2)cn3-c2cccc(Cl)c2)[C@@H](C)CN1C(=O)OC(C)(C)C` [Compound 117, tert-butyl (2R,5S)-4-(7-(3-chlorophenyl)-5-(pyridin-2-yl)-7H-pyrrolo[2,3-d]pyrimidin-4-yl)-2,5-dimethylpiperazine-1-carboxylate], the EC50 in assay [1] is less than 100 nM; in assay [2], less than 100 nM; in assay [3] it was 100 to 500 nM.
With `CCOC(=O)N1C[C@H](C)N(c2ncnc3c2c(-c2ccccn2)cn3-c2cccc(Cl)c2)C[C@H]1C` [Compound 118, Ethyl (2R,5S)-4-(7-(3-chlorophenyl)-5-(pyridin-2-yl)-7H-pyrrolo[2,3-d]pyrimidin-4-yl)-2,5-dimethylpiperazine-1-carboxylate], the values for the EC50 in assay [1], in assay [2] and in assay [3] were 500 to 2000 nM, 100 to 500 nM and greater than 2000 nM, respectively.
On the same counts, the results for `C[C@H]1CN(C(=O)OC(C)(C)C)CCN1c1ncnc2c1c(-c1ccccn1)cn2-c1cccc(Cl)c1` [Compound 119, tert-butyl (S)-4-(7-(3-chlorophenyl)-5-(pyridin-2-yl)-7H-pyrrolo[2,3-d]pyrimidin-4-yl)-3-methylpiperazine-1-carboxylate] are less than 100 nM, less than 100 nM and 100 to 500 nM.
Taken in the same sequence, the figures for `C[C@H]1CN(C(=O)OC(C)(C)C)CCN1c1ncnc2c1c(-c1cnccn1)cn2-c1cccc(Cl)c1` [Compound 120, tert-butyl (S)-4-(7-(3-chlorophenyl)-5-(pyrazin-2-yl)-7H-pyrrolo[2,3-d]pyrimidin-4-yl)-3-methylpiperazine-1-carboxylate] were less than 100 nM, 100 to 500 nM and 100 to 500 nM.
On the same counts, the results for `C[C@H]1CN(C(=O)OC(C)(C)C(F)(F)F)CCN1c1ncnc2c1c(-c1ccccn1)cn2-c1cccc(Cl)c1` [Compound 121, 1,1,1-trifluoro-2-methylpropan-2-yl (S)-4-(7-(3-chlorophenyl)-5-(pyridin-2-yl)-7H-pyrrolo[2,3-d]pyrimidin-4-yl)-3-methylpiperazine-1-carboxylate] are less than 100 nM, less than 100 nM and 100 to 500 nM.
On to `CC(C)(C)OC(=O)N1CCN(c2ncnc3c2c(C2CC2)cn3-c2cc(Cl)cc(Cl)c2)CC1` [Compound 122, tert-butyl 4-(5-cyclopropyl-7-(3,5-dichlorophenyl)-7H-pyrrolo[2,3-d]pyrimidin-4-yl)piperazine-1-carboxylate], for which the 50% effective concentration (EC50) is less than 100 nM in assay [1], less than 100 nM in assay [2] and greater than 2000 nM in assay [3].
As for `C[C@@H]1CN(c2ncnc3c2c(C2CC2)cn3-c2cc(F)cc(Cl)c2)CCN1C(=O)OC(C)(C)C` [Compound 123, tert-butyl (R)-4-(7-(3-chloro-5-fluorophenyl)-5-cyclopropyl-7H-pyrrolo[2,3-d]pyrimidin-4-yl)-2-methylpiperazine-1-carboxylate], the values for the concentration for a half-maximal effect (EC50) in assay [1], in assay [2] and in assay [3] were less than 100 nM, less than 100 nM and 100 to 500 nM, respectively.
`C[C@@H]1CN(c2ncnc3c2c(-c2cnccn2)cn3-c2cccc(Cl)c2)[C@@H](C)CN1C(=O)OC(C)(C)C` [Compound 124, tert-butyl (2R,5S)-4-(7-(3-chlorophenyl)-5-(pyrazin-2-yl)-7H-pyrrolo[2,3-d]pyrimidin-4-yl)-2,5-dimethylpiperazine-1-carboxylate]: the concentration for a half-maximal effect (EC50) in assay [1] is 100 to 500 nM; in assay [2] it was less than 100 nM; in assay [3] it was 500 to 2000 nM.
Regarding `C[C@H]1CN(C(=O)OC(C)(C)C)CCN1c1ncnc2c1c(C1CC1)cn2-c1cccc(F)c1` [Compound 127, tert-butyl (S)-4-(5-cyclopropyl-7-(3-fluorophenyl)-7H-pyrrolo[2,3-d]pyrimidin-4-yl)-3-methylpiperazine-1-carboxylate], the values for the EC50 in assay [1], in assay [2] and in assay [3] were less than 100 nM, less than 100 nM and 100 to 500 nM, respectively.
As for `C[C@H]1CN(C(=O)OC(C)(C)C)CCN1c1ncnc2c1c(C1CC1)cn2-c1ccc(F)cc1` [Compound 128, tert-butyl (S)-4-(5-cyclopropyl-7-(4-fluorophenyl)-7H-pyrrolo[2,3-d]pyrimidin-4-yl)-3-methylpiperazine-1-carboxylate], the EC50 was less than 100 nM in assay [1], less than 100 nM in assay [2] and 100 to 500 nM in assay [3].
`C[C@H]1CN(C(=O)OC(C)(C)C)CCN1c1ncnc2c1c(C1CC1)cn2-c1cc(Cl)cc(Cl)c1` [Compound 129, tert-butyl (S)-4-(5-cyclopropyl-7-(3,5-dichlorophenyl)-7H-pyrrolo[2,3-d]pyrimidin-4-yl)-3-methylpiperazine-1-carboxylate]: the half-maximal effective concentration (EC50) in assay [1] was less than 100 nM; in assay [2], less than 100 nM; in assay [3] it was 100 to 500 nM.
Consider `C[C@@H]1CN(c2ncnc3c2c(C2CC2)cn3-c2cccc(Cl)c2)[C@@H](C)CN1C(=O)OC(C)(C)C` [Compound 130, tert-butyl (2R,5S)-4-(7-(3-chlorophenyl)-5-cyclopropyl-7H-pyrrolo[2,3-d]pyrimidin-4-yl)-2,5-dimethylpiperazine-1-carboxylate], for which the values for the EC50 in assay [1], in assay [2] and in assay [3] were less than 100 nM, less than 100 nM and 100 to 500 nM, respectively.
In the case of `C[C@@H]1CN(c2ncnc3c2c(-c2cccnc2)cn3-c2cccc(Cl)c2)[C@@H](C)CN1C(=O)OC(C)(C)C` [Compound 131, tert-butyl (2R,5S)-4-(7-(3-chlorophenyl)-5-(pyridin-3-yl)-7H-pyrrolo[2,3-d]pyrimidin-4-yl)-2,5-dimethylpiperazine-1-carboxylate], the half-maximal effective concentration (EC50) is less than 100 nM in assay [1], less than 100 nM in assay [2] and 100 to 500 nM in assay [3].
